US5140025A, “Thienotricylene for the treatment of bronchial diseases” (BYK Gulden Lomberg Chemische Fabrik GmbH, priority 1987, dated 1992)
Like-named read-outs stand apart in the source and are kept apart here.

How the values were obtained:
M1 receptor (ganglionic) = test: Receptor affinity, electrically stimulated rabbit vas deferens in organ bath; conditions: vas deferens of the rabbit, agonist McN-A-343, Schild slope normalised to 1.00
Protocol: Isometric contractions (HSE force transducer, K-30; tilt and zones, BD-9 chart recorder) of isolated seminal duct sections of rabbits (male, white New Zealand rabbits, 2.5-3.5 kg) were recorded in an organ bath (10 ml, 31° C., gassing with carbogen, initial tension of the organs 0.75 g) under electrical stimultion (HSE stimulator; hook-shaped Pt electrode 1 cm below the water surface of the bath; 30 V, 0.5 ms, 0.05 Hz). After an equilibration time of 30 minutes, cumulative dose/response curves of McN-A-343 (10^-7 -2×10^-6 M) were recorded simultaneously on 8 organ sections in each case (control curves), using the technique described by van Rossum (1963). After 3 control curves, a fixed concentration of the agonist (for example 5×10^-7, 10^-6, 3×10^-6, 10^-5 or 3×10^-5 M) per organ section was applied and, after stabilisation of the effect, increasing concentrations of the agonist to be tested were added. The nutrient solution used had the following composition (mM): NaCl 118, KCl 4.7, CaCl2 ·2H2 O 2.5, MgSO4 ·7H2 O 0.6, KH2 PO 4 1.2, NaHCO3 25.0 and glucose 11.1. In order to block α2 -adrenoreceptors, the nutrient solution additionally contained 10^-6 M yohimbine.
The Tyrode nutrient solution used had the following composition (mM): NaCl 130, KCl 2.0, CaCl2 ·2H2 O 1.8, MgCl2 ·6H2 O 0.98, NaHCO3 12.0, NaH2 PO4 0.42 and glucose monohydrate 5.6. pA2 values (-log of the molar dissociation constants of the competitive antagonist-receptor complex) were determined by linear regression using the Schild plot: pA2 =-log [B/(x-1)], (Arunlakshana and Schild, 1959).

[1] = tested on: modified Shay rat (lesion formation and acid secretion); test: Antiulcerogenic and secretion-inhibiting action on the modified Shay rat; assay type: in vivo; conditions: Rattus norvegicus, iv, 4 h, modified Shay rat, i.v., interpolated dose, 4 h, N=24
Text: The excellent gastric protective action and the gastric secretion-inhibiting action of the compound (+)-4,9-dihydro-3-methyl-4-[(4-methyl-1-piperazinyl)-acetyl]-10H-thieno[3,4-b][1,5]benzodiazepin-10-one (=compound 1 in Table 8 below) in comparison with the corresponding (-)-enantiomer (=compound 3) and with the racemate (=compound 2) can be detected in studies on the modified Shay rat. The effect of the stated compounds after intravenous (i.v.) administration on the formation of lesions and the acid secretion in the modified Shay rat is shown in Table 8 below.
Ulcers are provoked in rats (female, 180-200 g, 4 animals per cage on high grids) which have fasted for 24 hours, by pylorus ligature (under diethyl ether anaesthesia) and oral administration of 100 mg/10 ml/kg of acetylsalicylic acid. The substances to be tested are administered intravenously (1 ml/kg) directly after the pylorus ligature. The wound is closed by means of Michel clamps. 4 hours afterwards, the animals are sacrificed under anaesthesia with ether by Atlas dislocation, and resection of the stomach.
The stomach is opened along the greater curvature and clamped to a cork sheet, the amount of secreted gastric juice (volume) is determined first and its HCl content (titration with sodium hydroxide solution) being determined subsequently. The number and size (=diameter) of ulcers present are determined using a stereomicroscope, under 10×magnification. The product of severity (according to the following point scale) and number of ulcers serves as an individual lesion index.
The reduction in the means lesion index of each treated group compared with the control group (=100%) serves as a measure of the antiulcerogenic effect. The ED50 is the dose which reduces the mean lesion index or the HCl secretion by 50% compared with the control.

[2] = tested on: acetylcholine-induced asthma attacks; test: Acetylcholine-induced asthma attacks in the conscious guinea pig, oral administration; assay type: in vivo, guinea pig (Pirbright White); conditions: 30 min after administration; for Number of animals, latency period tripled (= protected): 10 animals used
Text: Effect of orally administered (±)-telenzepine on acetylcholine-induced asthma attacks in the conscious guinea pig
As described by R. Beume, U. Kilian, N. Kolassa, K. Mussler, Atemw.-Lungenkrkh., 11, 342-345, 1985 ("The testing of bronchospasmolytic substances in conscious guinea pigs").
Pirbright White, Interfauna (Tuttlingen), 250-450 g, male, 10 animals per dose and experiment.
Thoracographic measurement of the respiratory activity, measurement of the latency period from the beginning of acetylcholine nebulisation to the beginning of the asthma attack; determination of the number of animals for which, 30 minutes after administration, the latency period of the experimental attack has been at least tripled in relation to the control attack; estimation of the approximate ED50 from this.
0.1, 0.3, 1, 3, 10 and 30 μmol/kg (±)-telenzepine p.o. (in 4% Methocel, administered in 0.9% NaCl); acetylcholine 0.09% in 0.9% NaCl by inhalatin (ultrasonic nebulisation).
The number of animals for which there is at least a tripling of the latency period of the acetylcholine-induced experimental attack in comparison with the control attack as a function of the perorally administered (±)-telenzepine dose is expressed as follows: […]

[3] = tested on: acetylcholine-induced bronchospasm; test: Acetylcholine-induced bronchospasm in anaesthetised, spontaneously breathing guinea pigs, intravenous administration; assay type: in vivo, guinea pig (Pirbright White); conditions: for Mean bronchospasmolytic activity, percentage increase of Vmaxe vs control spasm / Mean bronchospasmolytic activity, percentage increase of tidal volume (TV) vs control spasm: 0-60 min; for Mean bronchospasmolytic activity, percentage increase of Vmaxe vs control spasm / Mean bronchospasmolytic activity, percentage increase of tidal volume (TV) vs control spasm / Bronchospasmolytic activity, percentage increase of Vmaxe vs control spasm / Bronchospasmolytic activity, percentage increase of tidal volume (TV) vs control spasm: x±SEM, N=10; for ED50: Cavia porcellus, iv, 1 h, mean activity 0-60 min; for Bronchospasmolytic activity, percentage increase of Vmaxe vs control spasm / Bronchospasmolytic activity, percentage increase of tidal volume (TV) vs control spasm: at 60 min
Text: Effect of Intravenously Administered Telenzepine on Acetylchline-Induced Bronchospasms in Anaesthetised, Spontaneously Breathing Guinea Pigs
Method for simultaneously recording pharmacodynamic or toxic effects on interior sensitive receptors and the respiration of guinea pigs (U. Kilian, E. Muller, E. Ch. Dittmann and J. Hamacher, Arzneim.-Forsch. 28, 1699-1708, 1978).
Pirbright White, Interfauna (Tuttlingen), 350-450 g, male.
Ethylurethane 1.2 g/kg i.p. as 12.5% aqueous solution.
Pneumotachogram: Maximum flow velocities of the respiratory air during expiration (Vmaxe, "peak flow"), tidal volume (TV).
Acetylcholine as spasmogen, 0.2-0.3 μmol/kg i.v., dissolved in 0.9% NaCl.
-10 min control spasm, 0 min administration of substance, +2, +10, +20, +30, +60 min test spasms.
Determination of the effect of telenzepine on the parameters (mean and standard error of mean, n=10) and calculation of the bronchospasmolytic activity from this as percentage inhibition of the acetylcholine-induced decrease of Vmaxe and TV by means of time/effect curves. Computation of a dose/response curve of the mean bronchospasmolytic activity during the observation time (0-60 min) from the areas under the time/effect curves and reading of 1 h ED50 values. Determination of a dose/response curve of the bronchospasmolytic activity at time 60 min and reading ED50 values.

## Cc1scc2c1N(C(=O)CN1CCN(C)CC1)c1ccccc1NC2=O (racemic) [(±)-telenzepine, 4,9-dihydro-3-methyl-4-[(4-methyl-1-piperazinyl)-acetyl]-10H-thieno[3,4-b][1,5]benzodiazepin-10-one]
M1 receptor (ganglionic)
  pA2 ± SEM, M1 receptor (ganglionic): 8.86 ± 0.06
[1]; read-out: Gastric protective action, reduction of lesion index, about ED50
  ED50: ~0.042 mg/kg
[1]; read-out: Inhibition of acid secretion, reduction of HCl secretion, about ED50
  ED50: ~0.18 mg/kg
[2]; 0.1 μmol/kg p.o.
  Number of animals, latency period tripled (= protected): 3 number of animals
[2]; 0.3 μmol/kg p.o.
  Number of animals, latency period tripled (= protected): 5 number of animals
[2]; 1 μmol/kg p.o.
  Number of animals, latency period tripled (= protected): 6 number of animals
[2]; 3 μmol/kg p.o.
  Number of animals, latency period tripled (= protected): 7 number of animals
[2]; 10 μmol/kg p.o.
  Number of animals, latency period tripled (= protected): 9 number of animals
[2]; 30 μmol/kg p.o.
  Number of animals, latency period tripled (= protected): 10 number of animals
[2]; Cavia porcellus, po, 0.5 h, 95% Int. in brackets, read-out: approximate ED50 (at least tripling of latency period)
  ED50: ~0.7 µmol/kg
[3]; 0.03 μmol/kg i.v.
  Mean bronchospasmolytic activity, percentage increase of Vmaxe vs control spasm: 7 ± 3%
  Mean bronchospasmolytic activity, percentage increase of tidal volume (TV) vs control spasm: 7 ± 3%
  Bronchospasmolytic activity, percentage increase of Vmaxe vs control spasm: 11 ± 4%
  Bronchospasmolytic activity, percentage increase of tidal volume (TV) vs control spasm: 12 ± 6%
[3]; 0.05 μmol/kg i.v.
  Mean bronchospasmolytic activity, percentage increase of Vmaxe vs control spasm: 22 ± 3%
  Mean bronchospasmolytic activity, percentage increase of tidal volume (TV) vs control spasm: 26 ± 4%
  Bronchospasmolytic activity, percentage increase of Vmaxe vs control spasm: 25 ± 3%
  Bronchospasmolytic activity, percentage increase of tidal volume (TV) vs control spasm: 32 ± 5%
[3]; 0.1 μmol/kg i.v.
  Mean bronchospasmolytic activity, percentage increase of Vmaxe vs control spasm: 61 ± 8%
  Mean bronchospasmolytic activity, percentage increase of tidal volume (TV) vs control spasm: 68 ± 9%
  Bronchospasmolytic activity, percentage increase of Vmaxe vs control spasm: 70 ± 9%
  Bronchospasmolytic activity, percentage increase of tidal volume (TV) vs control spasm: 78 ± 11%
[3]; 1 μmol/kg i.v.
  Mean bronchospasmolytic activity, percentage increase of Vmaxe vs control spasm: 81 ± 4%
  Mean bronchospasmolytic activity, percentage increase of tidal volume (TV) vs control spasm: 84 ± 4%
  Bronchospasmolytic activity, percentage increase of Vmaxe vs control spasm: 82 ± 5%
  Bronchospasmolytic activity, percentage increase of tidal volume (TV) vs control spasm: 85 ± 5%
[3]; 5 μmol/kg i.v.
  Mean bronchospasmolytic activity, percentage increase of Vmaxe vs control spasm: 75 ± 3%
  Mean bronchospasmolytic activity, percentage increase of tidal volume (TV) vs control spasm: 86 ± 2%
  Bronchospasmolytic activity, percentage increase of Vmaxe vs control spasm: 80 ± 4%
  Bronchospasmolytic activity, percentage increase of tidal volume (TV) vs control spasm: 91 ± 3%
[3]; read-out: ED50 of mean bronchospasmolytic activity, TV
  ED50: 0.07 µmol/kg
[3]; read-out: ED50 of mean bronchospasmolytic activity, Vmaxe
  ED50: 0.08 µmol/kg
[3]; i.v.
  dose range of dose- and time-dependent inhibition of acetylcholine-induced bronchospasm: 0.03-1 μmol/kg i.v.
[3]; i.v., observation period
  persistence of maximum effect: ≥ 1 h
